# Structures can show the parent of a compound that is named as a salt.
# Key:
# clinical = conditions: for half-life: t1/2 (elimination half-life); for half-life / clearance: mean ±s.d.; for clearance: plasma, intravenous, CL (total body clearance)
# Procedure: (§1) Atropine was administered if diarrhoea, abdominal cramping or other symptoms of early cholinergic syndrome occurred within 1 h of receiving irinotecan. […] Dexamethasone and a 5-HT3 antagonist were administered to all patients as standard premedications unless contraindicated.
# (§2) Samples were centrifuged immediately at room temperature, and plasma was separated and stored in aliquots at −20°C until analysis.
# Samples were added to C8 solid-phase extraction tubes and extracts were dried on an evaporator. […] The fluorescence detector was set at excitation 480 nm and emission 560 nm.
# (§3) Pharmacokinetic parameters were determined by noncompartmental methods using WinNonlin (Version 3.0, Pharsight Corp., Mountain View, CA, USA). […] Pharmacokinetic parameters were compared using the paired t-test. A probability of P<0.05 was considered significant. The program S-PLUS for Windows (Version 6) (Insightful Corp., Seattle, WA, USA) was used for statistical analysis.
# [1] = cited from earlier work; for AUC when given together with paclitaxel: attributed to vehicle Cremophor EL, ref Yamamoto et al, 1999; for AUC when given together with carboplatin: ref Okamoto et al, 1998
# [2] = Plasma pharmacokinetics of irinotecan, SN-38, SN-38G and APC (HPLC, noncompartmental); conditions: for change of AUC when irinotecan administered immediately after epirubicin: Course 1 vs Course 2, paired t-test; for SN-38G AUCt: mean ±s.d., dose standardised to 100 mg irinotecan; for AUC in Course 1 compared to Course 2, higher by: second patient with elevated bilirubin (1.5 times ULN), irinotecan 80 mg m^−2
# Procedure: as §1, §2
# Irinotecan, SN-38 and APC concentrations were determined using a high-performance liquid chromatography assay. […] The fluorescence detector was operated at an excitation wavelength of 372 nm, irinotecan and APC were monitored at an emission wavelength of 425 nm, while SN-38 and the internal standard were monitored at 535 nm. SN-38 glucuronide (SN-38G) concentrations were estimated as increases in SN-38 concentrations after incubation of plasma samples with β-glucuronidase.
# as §3
# [3] = test system: patients with advanced solid tumours; conditions: triple combination, Day 1 every 3 weeks; normal total serum bilirubin
# Procedure: as §1
# [4] = set-up: method as in Vanhoefer et al, 2001; conditions: single-agent, weekly or every-3-week regimen; ref Vanhoefer et al, 2001; cited from earlier work
# [5] = human, plasma, intravenous, 100 mg
smiles,measurement,setting,value
"COc1cccc2c1C(=O)c1c(O)c3c(c(O)c1C2=O)C[C@@](O)([C@@H](O)CO)C[C@@H]3O[C@H]1C[C@H](N)[C@@H](O)[C@H](C)O1 [Epi-ol, epirubicinol]",Epi-ol AUCt,"clinical; human, in vivo, 100 mg",788 ± 482 ng·h/mL
CCc1c2c(nc3ccc(O)cc13)-c1cc3c(c(=O)n1C2)COC(=O)[C@]3(O)CC [SN-38],AUC when given together with paclitaxel,[1],increased
same,AUC when irinotecan is coadministered with doxorubicin,"[1]; ref Dunphy et al, 2001",not increased
same,AUC when given together with carboplatin,[1],lower
same,SN-38 AUCt,"[2]; human, in vivo",102 ± 54 ng·h/mL
same,SN-38 AUCt,"[2]; human, in vivo, 100 mg",78 ± 36 ng·h/mL
"CCc1c2c(nc3ccc(O[C@@H]4O[C@H](C(=O)O)[C@@H](O)[C@H](O)[C@H]4O)cc13)-c1cc3c(c(=O)n1C2)COC(=O)[C@]3(O)CC [SN-38G, SN-38 glucuronide]",change of AUC when irinotecan administered immediately after epirubicin,[2],increased significantly
same,SN-38G AUCt,[2]; Irinotecan → epirubicin (Course 2),378 ± 223 ng·h/mL
same,SN-38G AUCt,[2]; Irinotecan+epirubicin (Course 1),558 ± 480 ng·h/mL
same,"AUC in Course 1 compared to Course 2, higher by",[2],> 60%
CCc1c2c(nc3ccc(OC(=O)N4CCC(NCCCCC(=O)O)CC4)cc13)-c1cc3c(c(=O)n1C2)COC(=O)[C@]3(O)CC [APC],change of AUC when irinotecan administered immediately after epirubicin,[2],increased significantly
same,APC AUCt,"[2]; human, in vivo, 100 mg",725 ± 460 ng·h/mL
same,"AUC in Course 1 compared to Course 2, higher by",[2],> 60%
COc1cccc2c1C(=O)c1c(O)c3c(c(O)c1C2=O)C[C@@](O)(C(=O)CO)C[C@@H]3O[C@H]1C[C@H](N)[C@@H](O)[C@H](C)O1 [epirubicin],Vd (apparent volume of distribution),"clinical; human, in vivo",2563 ± 1122 L
same,AUC(0-inf),"clinical; human, in vivo, 100 mg",910 ± 368 ng·h/mL
same,AUC(0-t),"clinical; human, in vivo, 100 mg",723 ± 296 ng·h/mL
same,Vd,"clinical; human, in vivo, Vd (apparent volume of distribution)",3480 ± 1940 L
same,half-life,"clinical; human, in vivo, Irinotecan → epirubicin (Course 2)",16 ± 7.8 h
same,half-life,"clinical; human, in vivo, Irinotecan+epirubicin (Course 1)",23.1 ± 10.8 h
same,clearance,"clinical; human, Irinotecan → epirubicin (Course 2)",2080 mL/min
same,clearance,"clinical; human, Irinotecan+epirubicin (Course 1)",1830 mL/min
same,effect of sequence of drug administration on pharmacokinetic parameters,clinical; in vivo,not affected by the sequence of drug administration
"CCc1c2c(nc3ccc(OC(=O)N4CCC(N5CCCCC5)CC4)cc13)-c1cc3c(c(=O)n1C2)COC(=O)[C@]3(O)CC [irinotecan, Irinotecan hydrochloride]",AUC when given together with paclitaxel,[1],increased
same,share of irinotecan and its metabolites excreted via the biliary tract,[1],Over 60%
same,doses up to which pharmacokinetics is linear,"[1]; ref Mathijssen et al, 2001",up to 180 mg m^−2
same,AUC when given together with carboplatin,[1],lower
same,share of the administered irinotecan dose converted to SN-38,"[1]; ref Slatter et al, 2000",less than 10%
same,recommended phase II dose (MTD),[3],110 mg m^−2
same,AUC(0-inf),[2]; [5],2960 ± 1020 ng·h/mL
same,AUC(0-t),[2]; [5],2870 ± 916 ng·h/mL
same,frequency of grade 3/4 late diarrhoea,[4],> 20%

# From article PMC2376925 (British Journal of Cancer, 2003)
